Results published in US20220144812A1, “QUINOLINE DERIVATIVES AND THEIR USE FOR THE TREATMENT OF CANCER” (Epizyme, Inc., priority 2019, published 2022).

What was measured:
Format in all cases: cell-based
SCABER bladder cell line = test: 7-day proliferation assay, SCABER; conditions: Homo sapiens, 168 h, 7 days, CellTiter-Glo
Description: (§1) This example describes methods and materials for 7-day proliferation assay.
(§2) A total of 22 bladder cell lines were used (see table below). Cell lines were cultured in recommended growth media according to supplier.
(§3) Cells were in culture media at a density optimized for a 7-day culture in a final volume of 150 μL per well in white opaque 96-well plates. Cells were allowed to adhere for several hours (4-6 h) then compounds were added with HPD300 Digital Dispenser and placed into the incubator at 37° C., 5% CO2 for 7 days. After 7 days incubation, 100 μL of CellTiter-Glo® Luminescent Cell Viability Assay (Promega-G7573) reagents were added per well. After 20 minutes incubation luminescence was measured in plate reader. IC50 were calculated from a non-linear logarithmic growth curve.
(§4) IC50 values (nanomolar (nM)) are summarized in the table below, which depicts the inhibitory effect of certain compounds in bladder cell lines.

KU1919 bladder cell line = test: 7-day proliferation assay, KU1919; conditions: Homo sapiens, KU-19-19, 168 h; KU1919, 7 days, CellTiter-Glo
Description: as §1, §2, §3, §4

[1] = system: HB-CLS-2 bladder cell line; test: 7-day proliferation assay, HB-CLS-2; conditions: 168 h; HB-CLS-2, 7 days, CellTiter-Glo
Description: as §1, §2, §3, §4

KMBC2 bladder cell line = test: 7-day proliferation assay, KMBC2; conditions: 168 h; KMBC2, 7 days, CellTiter-Glo
Description: as §1, §2, §3, §4

UBLC1 bladder cell line = test: 7-day proliferation assay, UBLC1; conditions: 168 h; UBLC1, 7 days, CellTiter-Glo
Description: as §1, §2, §3, §4

VMCUB1 bladder cell line = test: 7-day proliferation assay, VMCUB1; conditions: Homo sapiens, VM-CUB-1, 168 h; VMCUB1, 7 days, CellTiter-Glo
Description: as §1, §2, §3, §4

639V bladder cell line = test: 7-day proliferation assay, 639V; conditions: Homo sapiens, 168 h, 7 days, CellTiter-Glo
Description: as §1, §2, §3, §4

TCCSUP bladder cell line = test: 7-day proliferation assay, TCCSUP; conditions: Homo sapiens, TCC-SUP, 168 h, 7 days, CellTiter-Glo
Description: as §1, §2, §3, §4

[2] = system: H3K18Ac in HB-CLS-2 cells; test: H3K18AC in-cell western (ICW) assay; conditions: H3K18Ac in-cell western; read-out: CREBBP ICW IC50
Summary of the method: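 In-cell western: after methanol fixation, blocking, overnight 4° C anti-H3K18Ac staining, then 800CW secondary plus DRAQ5 for DNA content, integrated intensities were scanned at 800 and 700 nm. Before this, compound exposure lasted 2 hr at 37° C in HB-CLS-2 cells plated 16–24 hours earlier. Values expressed as IC50 (μM).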

CAL29 bladder cell line = test: 7-day proliferation assay, CAL29; conditions: 168 h; CAL29, 7 days, CellTiter-Glo
Description: as §1, §2, §3, §4

RT4 bladder cell line = test: 7-day proliferation assay, RT4; conditions: 168 h; RT4, 7 days, CellTiter-Glo
Description: as §1, §2, §3, §4

[3] = system: BFTC905 bladder cell line; test: 7-day proliferation assay, BFTC905; conditions: Homo sapiens, BFTC-905, 168 h; BFTC905, 7 days, CellTiter-Glo
Description: as §1, §2, §3, §4

BC3C bladder cell line = test: 7-day proliferation assay, BC3C; conditions: 168 h, 7 days, CellTiter-Glo
Description: as §1, §2, §3, §4

JMSU1 bladder cell line = test: 7-day proliferation assay, JMSU1; conditions: JMSU-1, 168 h; JMSU1, 7 days, CellTiter-Glo
Description: as §1, §2, §3, §4

CLS439 bladder cell line = test: 7-day proliferation assay, CLS439; conditions: 168 h; CLS439, 7 days, CellTiter-Glo
Description: as §1, §2, §3, §4

647V bladder cell line = test: 7-day proliferation assay, 647V; conditions: Homo sapiens, 168 h, 7 days, CellTiter-Glo
Description: as §1, §2, §3, §4

| Structure (SMILES) | IC50 (SCABER bladder cell line) | IC50 (KU1919 bladder cell line) | IC50 [1] | IC50 (KMBC2 bladder cell line) | IC50 (UBLC1 bladder cell line) | IC50 (VMCUB1 bladder cell line) | IC50 (639V bladder cell line) | IC50 (TCCSUP bladder cell line) | IC50 [2] | IC50 (CAL29 bladder cell line) | IC50 (RT4 bladder cell line) | IC50 [3] | IC50 (BC3C bladder cell line) | IC50 (JMSU1 bladder cell line) | IC50 (CLS439 bladder cell line) | IC50 (647V bladder cell line) |
| --- | --- | --- | --- | --- | --- | --- | --- | --- | --- | --- | --- | --- | --- | --- | --- | --- |
| CCn1ncc(CN(C)C(=O)c2cc(-c3ccc(NCCNC)c(C)n3)nc3ccc(Cl)cc23)c1C [Compound 3, 6-chloro-N-[(1-ethyl-5-methyl-1H-pyrazol-4-yl)methyl]-N-methyl-2-(6-methyl-5-{[2-(methylamino)ethyl]amino}pyridin-2-yl)quinoline-4-carboxamide] | 249 nM | 145 nM | 220 nM | 7640 nM | 141 nM | 69 nM | 40 nM | 7.6 µM | 40 nM | 1990 nM | 158 nM | 122 nM | 5.1 µM | 378 nM | 619 nM | 127 nM |
| CCn1ncc(CN(C)C(=O)c2cc(-c3ccc(NC4CN(C)C4)c(C)n3)nc3ccc(Cl)cc23)c1C [Compound 480] | 172 nM | 90.5 nM | 344 nM | 1810 nM | 234 nM | 116 nM | 57 nM | 10 µM | 23.1 nM | 524 nM | 174 nM | 110 nM | 10 µM | 546 nM | 480 nM | 52 nM |
| CCc1noc(CN(C)C(=O)c2cc(-c3ccc(NCCNC)c(C)n3)nc3ccc(Cl)cc23)c1C [Compound 537] | 252 nM | 217 nM | 434 nM | 1600 nM | 494 nM | 116 nM | 99.5 nM | 10 µM | 48.3 nM | 704 nM | 344 nM | 224 nM | 4.06 µM | 748 nM | 849 nM | 125 nM |
| CCc1ncc(CN(C)C(=O)c2cc(-c3ccc(NCCN(C)C)c(C)n3)nc3ccc(Cl)cc23)n1C [Compound 577] | 182 nM | 102 nM | 240 nM | 896 nM | 427 nM | 51 nM | 100 nM | 10 µM | 85.4 nM | 1200 nM | 199 nM | 132 nM | 1.19 µM | 997 nM | 461 nM | 53.5 nM |
